Experimental data published in patent US10786582B2, “Gd(III)-dithiolane gold nanoparticle conjugates” (Northwestern University, priority 2015, dated 2020).

Assay: r1 relaxivity of dt-Gd(III) nanoconjugates, Bruker minispec 60 MHz
Format: physicochemical
Conditions: per Gd(III); 60 MHz (1.41 T), 37° C., water plus 0.01% tween 20
Procedure: A stock solution of backfilled dt-Gd(III) SNA conjugates was made (700 uL). This stock was serially diluted four times for a total of five solutions. Solutions were heated to 37° C. and two hundred μL of each concentration was placed into a Bruker minispec mq60 NMR spectrometer (60 MHz) for measurement of T1 relaxation time. Data were collected using an inversion recovery pulse sequence using 4 averages, a 15 s repetition time and 10 data points. The remaining volumes of each solution were utilized for ICP analysis of [Gd(III)]. The inverse of the longitudinal relaxation time (1/T1, s−1) was plotted versus the Gd(III) concentration (mM). […] Relaxivities of DNA-Gd@spheres, Gd(III)-DNA and complex 5 were collected by the analogous procedure (Table 3, FIG. 7).

r1 relaxivity ionic: 4.9 mM⁻¹ s⁻¹
Substance: 2,2′2″(10(3-(((1-(5-(1,2-dithiolan-3-yl)pentyl)-1,2,3-triazol-4-yl)methyl)amino)-3-oxopropyl)-1,4,7,10-tetraazacyclododecyl-gadolinium(III) complex [dt-Gd(III)]
